We go through 5 molecules from patent US20230160878A1, “METHOD OF SCREENING A THERAPY FOR INDUCTION OF FERROPTOSIS” (priority 2020, published 2023).

In data set [1] the test system is HMOX1. In words: RT-qPCR of HMOX1 expression in 786-O cells. The format is cell-based. The conditions noted are these: 1 μM; for relative expression of HMOX1 in absence of ferrostatin-1: four hours, relative to ACTB. On the procedure:
(§1) To confirm HMOX1 induction by the GPX4 inhibitors, an RT-qPCR assay was performed using three ferroptosis sensitive cancer cell lines: the fibrosarcoma cell line HT-1080, a Ewing's sarcoma cell line A673, and a renal clear cell carcinoma cell line 786-O. Briefly, cells were exposed to 1 μM ML162 or 1 μM RSL3 for 4 hours, RNA was isolated and an RT-qPCR assay was performed.
(§2) Briefly, HT-1080, A673, and 786-O cells were exposed to 1 μM ML162 or 1 μM RLS3 with or without 1 μM ferrostatin-1 for four hours, RNA was isolated and an RT-qPCR assay was performed to quantify HMOX1 expression. DMSO was used as a control exposure.
In general terms: Quantitative PCR measures a nucleic acid by following its amplification.

Data set [2] concerns HMOX1. The experiment in a line: RT-qPCR of HMOX1 expression in HT-1080 cells. The format is cell-based. The conditions noted are these: for HMOX1 induction with versus without ferrostatin-1: HT-1080, sodium arsenite 80 μM, hemin 5 μM, RSL3 1 μM, with or without 1 μM ferrostatin-1, four hours, normalized to DMSO. On the procedure: as §1
To further validate induction of HMOX1 mRNA expression by GPX4 inhibition, RT-qPCR was performed using varying doses of the RSL3 inhibitor. Briefly, HT-1080 cells were exposed to 5 μM RSL3, 1 μM RSL3, and 0.2 μM RSL3 for four hours, RNA was isolated and an RT-qPCR assay was performed to quantify HMOX1 expression. DMSO was used as a control exposure.
as §2
Sodium arsenite and hemin are known to be inducers of general oxidative stress in cells. Briefly, HT-1080 cells were exposed to sodium arsenite (80 μM), hemin (5 μM), ML162 (1 μM), or RSL3 (1 μM) with or without 1 μM ferrostatin-1 for four hours, RNA was isolated and an RT-qPCR assay was performed to quantify HMOX1 expression. DMSO was used as a control exposure.

The test system of data set [3] is HMOX1. The experiment in a line: RT-qPCR of HMOX1 expression in A673 cells. The format is cell-based. The conditions noted are these: A673, 1 μM; for relative expression of HMOX1 in absence of ferrostatin-1: four hours, relative to ACTB. How it is done: as §1, §2
The test system of data set [4] is HMOX1. In words: nascent RNA sequencing, transcriptional response to GPX4 inhibitors, HT-1080. The format is cell-based. The conditions noted are these: HT-1080, 1 μM, 1 hour. On the procedure:
(§3) To assess the transcriptional response of a cell to inhibition of GPX4, we exposed two cell lines to two different chemical inhibitors of GPX4 (ML162 and RSL3; available from Sigma Aldrich and Apex Bio respectively) and examined the transcriptional responses using a nascent RNA sequencing protocol. Briefly, a fibrosarcoma cell line HT-1080 and a lung fibroblast cell line IMR90 were exposed to 1 μM ML162 or 1 μM RSL3 for 1 hour and the nascent RNA sequencing protocol was performed.

Data set [5] concerns HMOX1. In words: nascent RNA sequencing, transcriptional response to GPX4 inhibitors, IMR90. Format: cell-based. The conditions noted are these: IMR90, 1 μM, 1 hour. How it is done:
as §3

Data set [6] relates to HMOX1. In words: RT-qPCR rescue of GPX4 inhibitor-mediated HMOX1 induction by ferrostatin-1 (HT-1080, A673 and 786-O pooled statement). Format: cell-based. The conditions noted are these: 1 μM ferrostatin-1 with 1 μM ML162 or RSL3, HT-1080, A673, 786-O, four hours. How it is done: as §2
Data set [7] has as its system HT-1080, A673, and 786-O cells lines. The conditions noted are these: ferrostatin-1 added to culture media; HT-1080, A673, 786-O; cited from earlier work.
The mark [8] stands for this setting: HT-1080, 1 μM, four hours, relative to ACTB.
[9] abbreviates: 4 hours, normalized to DMSO control, n=2.

In the case of `COc1ccc(N(C(=O)CCl)C(C(=O)NCCc2ccccc2)c2cccs2)cc1Cl` (centres unmarked) [ML162], the “relative expression of HMOX1 in absence of ferrostatin-1” value with HMOX1 [1], in the data set on HMOX1 [2] (setting [8]) and with HMOX1 [3] was “HMOX1 expression was observed” in each case. Also, the “relative expression of HMOX1 in presence of ferrostatin-1” value with HMOX1 [2] (HT-1080, 1 μM with 1 μM ferrostatin-1, four hours, relative to ACTB) was “induced HMOX1 even in the presence of ferrostatin-1”. In addition, the “HMOX1 differential expression (nascent transcription)” value in the data set on HMOX1 [4] and in the data set on HMOX1 [5] was “strongly differentially expressed” each time.
As for `CCOC(=O)c1ccc(NC2CCCCC2)c(N)c1` [ferrostatin-1], the “effect of ferrostatin-1 on HMOX1 induction by GPX4 inhibitors” value with HMOX1 [6] was “sufficient to prevent induction of HMOX1 in most conditions”. Further, the “cellular viability of cells treated with small molecules that induce lipid peroxidation” value in data set [7] is on record as “rescues cellular viability”.
Turning to hemin, in the data set with HMOX1 [2], the “HMOX1 induction with versus without ferrostatin-1” value is given as “not affected by the presence of ferrostatin-1”.
Consider `O=[As]O` [sodium arsenite], for which, in the data set on HMOX1 [2], the “HMOX1 induction with versus without ferrostatin-1” value is “not affected by the presence of ferrostatin-1”.
As to `COC(=O)c1ccc([C@@H]2c3[nH]c4ccccc4c3C[C@@H](C(=O)OC)N2C(=O)CCl)cc1` [RSL3], the “fold induction for HMOX1 mRNA” value with HMOX1 [1] (setting [9]) was “induced”; in the data set with HMOX1 [2] (HT-1080, 1 μM, 4 hours, normalized to DMSO control, n=2), “induced”; in the data set on HMOX1 [3] (setting [9]), “induced”. The “relative expression of HMOX1 in absence of ferrostatin-1” value in the data set with HMOX1 [1], with HMOX1 [2] (setting [8]) and with HMOX1 [3] was “HMOX1 expression was observed” each time. Moreover, in the data set with HMOX1 [2] (HT-1080, 5 μM, 1 μM and 0.2 μM, four hours, relative to ACTB), the “relative expression level of HMOX1, dose dependence” value was “proportional to the dose”. In addition, the “HMOX1 induction with versus without ferrostatin-1” value with HMOX1 [2] is “dependent on lipid peroxidation”. The “HMOX1 differential expression (nascent transcription)” value in the data set with HMOX1 [4] and in the data set on HMOX1 [5] was “strongly differentially expressed” each time.
